Results: ChEMBL document CHEMBL5728731, “Alkyl chain modified imidazoquinoline TLR7/8 agonist compounds and uses thereof” (2021)

Assays:
Toll-like receptor 7 = biological target: T1, Toll-like receptor 7 (Homo sapiens, UniProt Q9NYK1); assay: (§1) n Vitro Biological Assays: Plasmacytoid dendritic cell (pDC)—enriched peripheral blood mononuclear cells (PBMCs) were prepared from the blood of a series of human donors (3-5 donors/experiment). PBMCs were isolated using Ficoll-Paque Premium® (GE Healthcare, Chicago Ill.) using methods well known to those in the art. pDCs were magnetically isolated from the total recovered PBMC population using CD304 (BDCA-4/Neuropilin-1) microbeads (Miltenyi Biotec, San Diego Calif.), according to the manufacturer's instructions. Isolated pDCs were then added back to between 1 and 2×108 of the corresponding donor's PBMCs for relative enrichment of this cell type. […] Culture supernatants were collected and interferon-alpha (IFNα) protein levels were measured by ELISA (MabTech, Cincinnati Ohio), according to the manufacturer's instructions.Monocytes were magnetically isolated from PBMCs, prepared as described above, following labeling with CD14 microbeads (Miltenyi Biotec, San Diego Calif.), according to the manufacturer's instructions. […] Culture supernatants were collected and tumor necrosis factor alpha (TNFα) protein levels were measured by ELISA (MabTech, Cincinnati Ohio), according to the manufacturer's instructions.
T1 sequence (Q9NYK1 whole entry): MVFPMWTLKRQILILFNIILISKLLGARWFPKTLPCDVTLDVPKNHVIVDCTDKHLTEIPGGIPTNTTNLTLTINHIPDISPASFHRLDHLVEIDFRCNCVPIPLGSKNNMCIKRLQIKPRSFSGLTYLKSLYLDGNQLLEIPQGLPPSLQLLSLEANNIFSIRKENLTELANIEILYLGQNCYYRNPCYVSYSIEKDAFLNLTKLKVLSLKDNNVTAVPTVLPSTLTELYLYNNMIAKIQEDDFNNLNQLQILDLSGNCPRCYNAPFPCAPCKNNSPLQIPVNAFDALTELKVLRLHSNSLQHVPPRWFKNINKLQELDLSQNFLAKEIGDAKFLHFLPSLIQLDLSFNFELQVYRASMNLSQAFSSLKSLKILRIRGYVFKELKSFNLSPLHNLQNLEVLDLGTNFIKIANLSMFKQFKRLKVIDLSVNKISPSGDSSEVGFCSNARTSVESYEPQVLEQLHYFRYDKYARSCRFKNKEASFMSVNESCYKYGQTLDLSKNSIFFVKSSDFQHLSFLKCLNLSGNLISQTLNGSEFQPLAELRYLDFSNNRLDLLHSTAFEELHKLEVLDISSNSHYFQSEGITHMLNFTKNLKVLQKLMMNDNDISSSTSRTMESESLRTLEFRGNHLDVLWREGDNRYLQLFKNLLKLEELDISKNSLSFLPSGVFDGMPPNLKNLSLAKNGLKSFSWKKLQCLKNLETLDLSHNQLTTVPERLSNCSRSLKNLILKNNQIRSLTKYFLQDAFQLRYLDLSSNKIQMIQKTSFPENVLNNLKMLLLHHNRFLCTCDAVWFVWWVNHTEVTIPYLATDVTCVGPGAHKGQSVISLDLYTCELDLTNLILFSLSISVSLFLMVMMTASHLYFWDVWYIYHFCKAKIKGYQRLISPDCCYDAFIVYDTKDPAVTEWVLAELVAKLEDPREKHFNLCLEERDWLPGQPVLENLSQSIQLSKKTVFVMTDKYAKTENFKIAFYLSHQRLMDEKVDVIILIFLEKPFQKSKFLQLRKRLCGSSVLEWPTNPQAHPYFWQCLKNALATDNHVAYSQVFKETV

Toll-like receptor 8 = biological target: T2, Toll-like receptor 8 (Homo sapiens, UniProt Q9NR97); assay: as §1
T2 sequence (Q9NR97 whole entry): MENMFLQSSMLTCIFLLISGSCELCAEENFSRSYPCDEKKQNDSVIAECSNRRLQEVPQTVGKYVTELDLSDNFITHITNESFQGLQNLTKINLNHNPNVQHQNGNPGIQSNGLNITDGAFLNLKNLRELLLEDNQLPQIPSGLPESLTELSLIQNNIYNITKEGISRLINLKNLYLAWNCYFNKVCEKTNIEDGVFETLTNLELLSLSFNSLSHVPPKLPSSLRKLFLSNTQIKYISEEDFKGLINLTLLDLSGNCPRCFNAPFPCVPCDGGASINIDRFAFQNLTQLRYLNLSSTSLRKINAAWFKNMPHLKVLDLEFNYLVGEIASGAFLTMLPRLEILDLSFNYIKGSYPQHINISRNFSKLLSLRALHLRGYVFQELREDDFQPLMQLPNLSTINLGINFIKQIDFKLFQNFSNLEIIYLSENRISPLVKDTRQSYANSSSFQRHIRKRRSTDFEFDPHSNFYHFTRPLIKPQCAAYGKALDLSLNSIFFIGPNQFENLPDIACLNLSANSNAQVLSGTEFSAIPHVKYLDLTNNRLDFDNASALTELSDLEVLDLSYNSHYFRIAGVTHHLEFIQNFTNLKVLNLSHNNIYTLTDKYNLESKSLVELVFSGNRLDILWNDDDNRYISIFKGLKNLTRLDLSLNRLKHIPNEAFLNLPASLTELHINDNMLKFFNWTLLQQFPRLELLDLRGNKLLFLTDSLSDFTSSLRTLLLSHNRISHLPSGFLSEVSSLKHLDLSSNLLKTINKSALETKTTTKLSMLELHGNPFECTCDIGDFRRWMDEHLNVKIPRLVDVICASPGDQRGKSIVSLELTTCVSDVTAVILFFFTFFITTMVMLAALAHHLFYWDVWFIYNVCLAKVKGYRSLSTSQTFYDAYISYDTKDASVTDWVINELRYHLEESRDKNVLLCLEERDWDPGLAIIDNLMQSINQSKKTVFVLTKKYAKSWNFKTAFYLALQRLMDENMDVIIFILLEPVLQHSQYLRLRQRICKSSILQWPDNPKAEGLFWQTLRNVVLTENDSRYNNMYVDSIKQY

SMILES | EC50 (Toll-like receptor 7) [nM] | EC50 (Toll-like receptor 8) [nM]
CCCCCCCCCCCCCCCCCC(=O)NCc1ccc(Cn2c(CCCC)nc3c(N)nc4ccccc4c32)cc1 | 41 | 5720
CCCCCC(=O)NCc1ccc(Cn2c(CCCC)nc3c(N)nc4ccccc4c32)cc1 | 11 | 2140
CCCCCCCCCCCCCCC(=O)NCc1ccc(Cn2c(CCCC)nc3c(N)nc4ccccc4c32)cc1 | 2 | 827
